Reference: patent US5681816A, “Method of inducing temporary paralysis of the gastrointestinal tract during medical procedure” (priority 1994, dated 1997)
Read-outs that look alike come from different tables or passages of the source.

Key:
[1] = in vivo; cited from earlier work
[2] = tested on: rat and guinea pig isolated midcolon sections; conditions: cited from earlier work
[3] = tested on: isolated human ileum; conditions: all frequencies tested; cited from earlier work
[4] = tested on: gastroduodenal motility; conditions: cited from earlier work
[5] = in vivo; cited from earlier work; remark: listed apart in the source
[6] = tested on: opossum duodenum; conditions: cited from earlier work
[7] = for blood pressure and pulse: first patient
Protocol: During the period of observation, vital signs (blood pressure and pulse) and symptoms were continuously recorded. The protocol was such that if the blood pressure dropped by more than 20 mm Hg systolic or diastolic or the pulse increased by more than 30 beats per minute for 2 minutes, intravenous saline was to be administered and the study terminated.

[8] = 1 mg intravenously followed by 2 mg IV over 2 hours

What does the source list for `CN1[C@@H]2CC[C@H]1C[C@@H](OC(=O)C(CO)c1ccccc1)C2` (stereo partly drawn) [atropine]?
beneficial effects during endoscopies (patient tolerance, facilitation of endoscopy) [1]: failed to demonstrate any beneficial effects; ascending contractions ([2]; all grades of stretch): strongly inhibits; descending relaxation [2]: no effect; response to electrical field stimulation [3]: primary relaxation

For glucagon, which “cycle length and time between contractile activity in the duodenum” value [4, 8] is on record?
The value was “significantly increased”.

What about the mean pressure period [4, 8] of the same compound?
Its mean pressure period is “decreased”.

And the “contractions in the antrum” value ([4]; doses as high as 2 mg)?
Its value is “does not reduce contractions”.

And the colonoscopic evaluation ([4]; in vivo)?
Its colonoscopic evaluation is “does not facilitate”.

And the gastroduodenal motility ([4]; in vivo)?
Its gastroduodenal motility is “variable reduction”.

What about the “minimally effective dose for reduction in gastroduodenal motility” value ([4]; in vivo) of the same compound?
Its value is 0.5 mg.

And the “dose at which nausea and vomiting can appear” value [5]?
Its value is 1 mg.

What about the “effect on opossum duodenum” value [6] of the same compound?
Its value is “stimulated relaxation”.

With `CC[C@H](C)[C@H](NC(=O)[C@H](CO)NC(=O)[C@H](CC(N)=O)NC(=O)[C@H](CC(C)C)NC(=O)[C@H](Cc1ccc(O)cc1)NC(=O)[C@H](CCCCN)NC(=O)[C@H](CCCCN)NC(=O)[C@@H](NC(=O)[C@H](C)NC(=O)[C@H](CCSC)NC(=O)[C@H](CCC(N)=O)NC(=O)[C@H](CCCCN)NC(=O)[C@H](CCCN=C(N)N)NC(=O)[C@H](CC(C)C)NC(=O)[C@H](CCCN=C(N)N)NC(=O)[C@@H](NC(=O)[C@H](Cc1ccc(O)cc1)NC(=O)[C@H](CC(N)=O)NC(=O)[C@H](CC(=O)O)NC(=O)[C@@H](NC(=O)[C@H](Cc1ccccc1)NC(=O)[C@@H](NC(=O)[C@H](C)NC(=O)[C@H](CC(=O)O)NC(=O)[C@H](CO)NC(=O)[C@@H](N)Cc1c[nH]cn1)C(C)C)[C@@H](C)O)[C@@H](C)O)C(C)C)C(=O)N[C@@H](CC(C)C)C(=O)N[C@@H](CC(N)=O)C(N)=O` [VIP, vasoactive intestinal peptide] as the compound, how does the “blood pressure and pulse” value ([7]; 5 ng VIP per kg) read?
The value was “slight decrease in systolic pressure and increase in pulse”.

And the “blood pressure and pulse” value ([7]; higher dose level (20 ng/kg))?
The value was “these effects on blood pressure and pulse were not seen”.

And the “blood pressure or pulse” value ([7]; second patient, any of the dosages tested)?
The value was “no significant change”.

And the “effect on blood pressure” value ([7]; summary statement)?
The value was “without a significant effect”.

And the “blood pressure or pulse” value ([7]; third patient, any dose)?
The value was “no significant change”.

What about the “adverse reactions such as nausea or vomiting” value ([7]; three patients) of the same compound?
The value was “None of the three patients studied experienced any adverse reactions”.
